We go through 18 compounds from patent EP1652839A2, “Drug efflux pump inhibitor” (priority 1999, dated 2001).

The subject of this experiment is Pseudomonas aeruginosa PAM 1723 strain highly expressing the drug efflux pump. Put plainly: Effect of combinational use with an antimicrobial agent on multidrug resistant Pseudomonas aeruginosa (broth culture, transmittance and turbidity readout). Format: cell-based. As to conditions: minimum concentration of compound required to enhance antibacterial activity, MHB, 1 × 10^6 CFU/ml; for Combination with AZT: azthreonam (AZT) at 1/8 or less of the minimum inhibitory concentration, combinational use for 18 hours; for Combination with LVFX: levofloxacin (LVFX) at 1/8 or less of the minimum inhibitory concentration, combinational use for 7.5 hours. An excerpt:
Test Example 1: Effect of combinational use with an antimicrobial agent on multidrug resistant Pseudomonas aeruginosa
As multidrug resistant Pseudomonas aeruginosa, Pseudomonas aeruginosa PAM 1723 strain highly expressing the drug efflux pump was used. As antimicrobial drugs for the combinational uses, levofloxacin (LVFX) as a quinolone antibacterial agent and azthreonam (AZT) as a monobactam antibiotic were used.
Each of the compounds shown in Table 1 with Example No., which falls within the compounds of the present invention, was subjected to the measurement of its minimum concentration (µg/ml) that was required to enhance the antibacterial activity of the antibacterial agent when the test compound was used in combination with the antibacterial drug applied at a concentration of 1/4, or 1/8 or less of the minimum inhibitory concentration against the PAM 1723 strain. […] As for levofloxacin, effects were indicated as combinational uses for 7.5 hours, and as for azthreonam, effects as combinational uses for 18 hours was indicated. The Müller-Hinton broth (MHB, Difco) was used as a medium, and the inoculated amount of the bacteria was 1 × 10^6 CFU/ml. Effects were determined by optically measuring the transmittance of the bacterial culture with time, and visually observing the turbidity of the medium.

In the case of `O=C(Cc1ccccc1C(=O)O)Nc1cccc(/C=C/c2nc(-c3ccccc3)cs2)c1` [Example 1, 2-(2-Oxo-2-3-[(E)-2-(4-phenyl-1,3-thiazol-2-yl)-1-ethenyl]anilinoethyl)-benzoic acid], the “Combination with AZT” value worked out at 1.25 µg/mL and the “Combination with LVFX” value is “<=0.63 µg/ml”.
The corresponding values for `O=C(Cc1ccccc1C(=O)O)Nc1cccc(OCc2ccc3ccccc3n2)c1` [Example 2, 2-{2-Oxo-2-[3-(2-quinolylmethoxy)anilino]ethyl}benzoic acid] are 5 µg/mL and 20 µg/mL.
On to `CC(C)c1nc(/C=C/c2cccc(NC(=O)Cc3ccccc3C(=O)O)c2)sc1Cl` [Example 3, 2-(2-3-[(E)-2-(4-Isopropyl-5-chloro-1,3-thiazol-2-yl)-1-ethenyl]anilino-2-oxoethyl)benzoic acid], for which the “Combination with LVFX” value is “<=2.5 µg/ml”.
For the compound `O=C(Cc1ccccc1C(=O)O)Nc1cccc(/C=C/c2ccc(-c3ccccc3)o2)c1` [Example 4, 2-[2-Oxo-2-{3-[(E)-(5-phenyl-2-furyl)-1-ethenyl]anilino}ethyl]benzoic acid], the “Combination with AZT” value was found to be 2.5 µg/mL and the “Combination with LVFX” value came to 10 µg/mL.
Consider `CC(C)c1nc(/C=C/c2cccc(NC(=O)Cc3ccccc3C(=O)O)c2)sc1N` [Example 5, 2-{2-[3-((E)-2-{5-Amino-4-isopropyl-1,3-thiazol-2-yl}-1-ethenyl)amino]-2-oxoethyl}benzoic acid], for which the “Combination with AZT” value was 20 µg/mL and the “Combination with LVFX” value was determined as 10 µg/mL.
The like results for `O=C(Cc1ccccc1C(=O)O)Nc1cccc(/C=C/c2nc3cccnc3s2)c1` [Example 6, 2-(2-Oxo-2-{3-[(E)-2-(pyrido[3,2-d][1,3]thiazol-2-yl)-1-ethenyl]anilino}ethyl)benzoic acid] were, in that order, 5 µg/mL and 20 µg/mL.
For `O=C(Cc1ccccc1C(=O)O)Nc1cccc(/C=C/c2nc3ccccc3o2)c1` [Example 7, 2-(2-3-[(E)-2-(1,3-Benzoxazol-2-yl)-1-ethenyl]anilino-2-oxoethyl)benzoic acid], the “Combination with AZT” value stood at 5 µg/mL and the “Combination with LVFX” value worked out at 2.5 µg/mL.
`O=C(Cc1ccccc1C(=O)O)Nc1cccc(/C=C/c2nc(-c3ccncc3)cs2)c1` [Example 8, 2-[2-Oxo-2-(3-(E)-2-[4-(4-pyridyl)-1,3-thiazol-2-yl]-1-ethylanilino)ethyl]-benzoic acid]: the “Combination with AZT” value came out at 2.5 µg/mL and the “Combination with LVFX” value was 0.63 µg/mL.
The corresponding values for `CC(C)c1cccc(COc2cccc(NC(=O)Cc3ccccc3C(=O)O)c2)n1` [Example 9, 2-(2-3-[(6-Isopropyl-2-pyridyl)methoxy]anilino-2-oxoethyl)benzoic acid] are 2.5 µg/mL and 0.63 µg/mL.
The like results for `O=C(Cc1ccccc1C(=O)O)Nc1cccc(CCc2nc(-c3ccccc3)cs2)c1` [Example 10, 2-(2-Oxo-2-{3-[2-(4-phenyl-1,3-thiazol-2-yl)ethyl]anilino}ethyl)benzoic acid] were, in that order, 2.5 µg/mL and 20 µg/mL.
The like results for `O=C(Cc1ccccc1C(=O)O)Nc1cccc(C2CC2c2nc(-c3ccccc3)cs2)c1` (centres unmarked) [Example 11, 2-(2-Oxo-2-{3-[2-(4-phenyl-1,3-thiazol-2-yl)cyclopropyl]anilino}ethyl)benzoic acid] were, in that order, 40 µg/mL and more than 40 µg/mL.
For the compound `O=C(Cc1ccccc1C(=O)O)Nc1cccc(C(=O)Nc2nc(-c3ccccc3)cs2)c1` [Example 12, 2-(2-Oxo-2-(3-((4-phenyl-1,3-thiazol-2-yl)amino)carbonylanilino)ethyl)-benzoic acid], the “Combination with AZT” value came to 20 µg/mL and the “Combination with LVFX” value is more than 40 µg/mL.
The like results for `CC(C)c1nsc(COc2cc(NC(=O)Cc3ccccc3C(=O)O)c(F)cc2F)n1` [Example 13, 2-(2-2,4-Difluoro-5-[(3-isopropyl-1,2,4-thiadiazol-5-yl)methoxy]anilino-2-oxoethyl)benzoic acid] were, in that order, 1.25 µg/mL and “<=0.63 µg/ml”.
The like results for `CC(C)c1csc(COc2cc(N)cc(NC(=O)Cc3ccccc3C(=O)O)c2)n1` [Example 14, 2-(3-Amino-5-((4-isopropyl-1,3-thiazol-2-yl)methoxy)anilino-2-oxoethyl)-benzoic acid] were, in that order, 10 µg/mL and 10 µg/mL.
For `CC(C)c1csc(/C=C/c2cncc(NC(=O)[C@H]3OC(C)(C)O[C@@H]3C(=O)O)c2)n1` [Example 15, (4S,5S)-5-[(5-[(E)-2-(4-Isopropyl-1,3-thiazol-2-yl)-1-ethenyl]-3-pyridyl-amino)carbonyl]-2,2-dimethyl-1,3-dioxolane-4-carboxylic acid], the “Combination with AZT” value is 40 µg/mL and the “Combination with LVFX” value is 20 µg/mL.
The like results for `COC(=O)c1cc(NC(=O)Cc2ccccc2C(=O)O)cc(OCc2nc(C(C)C)cs2)c1` [Example 16, 2-(3-((4-Isopropyl-1,3-thiazol-2-yl)methoxy)-5-(methoxycarbonyl)anilino)-2-oxoethylbenzoic acid] were, in that order, 160 µg/mL and 160 µg/mL.
The like results for `CC(C)c1csc(/C=C/c2cncc(NC(=O)Cc3ccccc3C(=O)O)c2)n1` [Example 17, 2-[2-(5-[(E)-2-(4-Isopropyl-1,3-thiazol-2-yl)-1-ethenyl]-3-pyridylamino)-2-oxoethyl]benzoic acid] were, in that order, 1.25 µg/mL and 0.63 µg/mL.
The like results for `CC(C)c1csc(/C=C/c2cccc(NC(=O)Cc3ccccc3C(=O)O)n2)n1` [Example 18, 2-[2-(6-[(E)-2-(4-Isopropyl-1,3-thiazol-2-yl)-1-ethenyl]-2-pyridylamino)-2-oxoethyl]benzoic acid] were, in that order, 20 µg/mL and 10 µg/mL.
